In patent US10800778B2 (Entasis Therapeutics Limited, priority 2016, dated 2020) one finds half-life data, which are given here for 17 compounds.

Data set [1] in a line: Stability/conversion of esters in human liver S9. Type of data set: in vitro ADME. The protocol: (§1) The human intestinal S9 with the absence of PMSF, human liver S9, rat intestinal S9, and rat liver S9 preparations were obtained from Xenotech (Lenexa, Kans.). The 500-μL incubation solution contained 0.8 mg/mL of enzyme (or no enzyme for buffer stability), 10 μM of test compounds in 100 mM of HEPES buffer, pH 7.4. The hydrolysis reactions were conducted in a 1-mL glass insert (Analytical Sales, Pompton Plains, N.J.) in a shake water bath at 37° C. At 0, 2, 5, 10, 15, 30 and 60 min, the reaction was terminated by pipetting 50 μL incubate to a 96 DeepWell plate (Thermo Fisher Scientific, Rochester, N.Y.) containing 100 μL of acetonitrile with 250 ng/mL of Carbutamide (Sigma-Aldrich, St. Louis, Miss.) as the internal standard. The crashed solutions were then vortexed well followed by centrifuge at 4000 rpm for 15 min at 4° C. The extract was transferred to a new 96 DeepWell plate for LC-MS/MS analysis.
(§2) LC-MS/MS analysis was done using an AB Sciex QTrap 6500 mass spectrometer under positive ionization mode, coupled to a Schimadzu Nexera LC system.
(§3) A Waters Atlantis T3 (3 μm, 3.0×50 mm) column was used for separation. The mobile phase consisted 0.1% formic acid in water (A) and 0.1% formic acid in acetonitrile (B) with a flow rate set at 1.2 mL/min. For the prodrug analysis, the Multiple Reaction Monitoring (MRM) specific for each compound was set up so that both prodrug and its hydrolyzed active can be monitored simultaneously.
(§4) Half-lives listed are based on disappearance of starting ester.

Data set [2] in a line: Stability/conversion of esters in rat liver S9. Type of data set: in vitro ADME. The protocol:
as §1, §2, §3, §4

The nature of data set [3]: Stability in pH 7.4 buffer (no enzyme). Type of data set: physicochemical. The note with it: read-out: T1/2 pH 7.4 Buffer. The protocol:
as §1, §2, §3, §4

Data set [4] can be described thus: Stability/conversion of esters in rat intestinal S9. Type of data set: in vitro ADME. The protocol: as §1, §2, §3, §4
Data set [5] in a line: Stability/conversion of esters in human intestinal S9. Type of data set: in vitro ADME. The procedure: as §1, §2, §3, §4
The mark [6] stands for this setting: liver S9, pH 7.4, read-out: T1/2 Human Liver S9.
Setting [7] is: liver S9, pH 7.4, read-out: T1/2 Rat Liver S9.
Where [8] appears, read: intestinal S9, pH 7.4, read-out: T1/2 Rat Intestinal S9.
Where [9] appears, read: intestinal S9 (without PMSF), pH 7.4, read-out: T1/2 Human Intestinal S9.
Setting [10] is: s9, pH 7.4, read-out: T1/2 Human Liver S9.
Setting [11] is: s9, pH 7.4, read-out: T1/2 Rat Liver S9.
[12] abbreviates: s9, pH 7.4, read-out: T1/2 Rat Intestinal S9.
[13] abbreviates: s9, pH 7.4, read-out: T1/2 Human Intestinal S9.

Counter-ions that a name gives are not always drawn. Bounds are passed on as bounds.

For the compound `CCCCCCCCOC(=O)[C@@H](F)ON1C(=O)N2C[C@H]1C=C(C)[C@H]2C(N)=O` [Example 45, octyl (2R)-2-[[(2S,5R)-2-carbamoyl-3-methyl-7-oxo-1,6-diazabicyclo[3.2.1]oct-3-en-6-yl]oxy]-2-fluoro-acetate], the half-life at 10 μM in data set [1] (setting [6]) was found to be 0.39 min; in data set [2] (setting [7]), 0.22 min; in data set [3] (HEPES buffer without enzyme) it was 33 min; in data set [4] (setting [8]) it was 17 min; in data set [5] (setting [9]) it was 2 min.
Take `CCCCOC(=O)[C@@H](F)ON1C(=O)N2C[C@H]1C=C(C)[C@H]2C(N)=O` [Example 50, butyl (2R)-2-[[(2S,5R)-2-carbamoyl-3-methyl-7-oxo-1,6-diazabicyclo[3.2.1]oct-3-en-6-yl]oxy]-2-fluoro-acetate]: the half-life at 10 μM in data set [1] (setting [6]) is 3.5 min; in data set [2] (setting [7]) it was 2.8 min; in data set [3] (HEPES buffer without enzyme), 120 min; in data set [4] (setting [8]), 30 min; in data set [5] (setting [9]) it was 73 min.
In the same order, the values of `CC1=C[C@@H]2CN(C(=O)N2O[C@H](F)C(=O)OCC(C)C)[C@@H]1C(N)=O` [Example 49, isobutyl (2R)-2-[[(2S,5R)-2-carbamoyl-3-methyl-7-oxo-1,6-diazabicyclo[3.2.1]oct-3-en-6-yl]oxy]-2-fluoro-acetate] are 6.9 min, 1.8 min, 68 min, 26 min and 32 min.
The matching figures for `CCOC(=O)CON1C(=O)N2C[C@H]1C=C(C)[C@H]2C(N)=O` [Example 9, ethyl {[(2S,5R)-2-carbamoyl-3-methyl-7-oxo-1,6-diazabicyclo[3.2.1]oct-3-en-6-yl]oxy}acetate]: 2.9 min, 1.4 min, 18.3 min, 27.3 min and 17.8 min.
Regarding `CC1=C[C@@H]2CN(C(=O)N2O[C@H](F)C(=O)OC(C)OC(=O)OC(C)C)[C@@H]1C(N)=O` (stereo partly drawn) [Example 53, 1-isopropoxycarbonyloxyethyl (2R)-2-[[(2S,5R)-2-carbamoyl-3-methyl-7-oxo-1,6-diazabicyclo[3.2.1]oct-3-en-6-yl]oxy]-2-fluoro-acetate], the half-life at 10 μM is 1.7 min in data set [1] (setting [6]); 2 min in data set [2] (setting [7]); 4.8 min in data set [3] (HEPES buffer without enzyme); 4.2 min in data set [4] (setting [8]); under 1 min in data set [5] (setting [9]).
The matching figures for `CCOC(=O)[C@@H](F)ON1C(=O)N2C[C@H]1C=C(C)[C@H]2C(=O)NCO` [Example 86, ethyl (2R)-2-fluoro-2-[[(2S,5R)-2-(hydroxymethylcarbamoyl)-3-methyl-7-oxo-1,6-diazabicyclo[3.2.1]oct-3-en-6-yl]oxy]acetate]: 24 min, 23 min, 39 min, 43 min and 36 min.
Take `CCOC(=O)[C@@H](F)ON1C(=O)N2C[C@H]1C=C(C)[C@H]2C(N)=O` [Example 1, (R)-ethyl 2-((2S,5R)-2-carbamoyl-3-methyl-7-oxo-1,6-diazabicyclo[3.2.1]oct-3-en-6-yloxy)-2-fluoroacetate]: the half-life at 10 μM was 6.5 min in data set [1] (setting [10]); 4.4 min in data set [2] (setting [11]); 41 min in data set [3] (buffer); 39 min in data set [4] (setting [12]); 38 min in data set [5] (setting [13]).
The matching figures for `CCOC(=O)[C@H](F)ON1C(=O)N2C[C@H]1C=C(C)[C@H]2C(N)=O` [Example 2, (S)-ethyl 2-((2S,5R)-2-carbamoyl-3-methyl-7-oxo-1,6-diazabicyclo[3.2.1]oct-3-en-6-yloxy)-2-fluoroacetate]: 1.9 min, 1.4 min, 29 min, 24 min and 21 min.
In the case of `COCCOC(=O)[C@@H](F)ON1C(=O)N2C[C@H]1C=C(C)[C@H]2C(N)=O` [Example 18, 2-methoxyethyl (2R)-{[(2S,5R)-2-carbamoyl-3-methyl-7-oxo-1,6-diazabicyclo[3.2.1]oct-3-en-6-yl]oxy}(fluoro)ethanoate], the half-life at 10 μM in data set [1] (setting [6]) worked out at 9.2 min; in data set [2] (setting [7]) it was 7 min; in data set [3] (HEPES buffer without enzyme), 18 min; in data set [4] (setting [8]) it was 16 min; in data set [5] (setting [9]), 15 min.
In the same order, the values of `CCOC(=O)[C@H](F)ON1C(=O)N2C[C@H]1C=C(C)[C@H]2C(=O)NOC[C@@H]1CCCN1` [Example 60, ethyl (2S)-2-fluoro-2-(((2S,5R)-3-methyl-7-oxo-2-((((S)-pyrrolidin-2-yl)methoxy)carbamoyl)-1,6-diazabicyclo[3.2.1]oct-3-en-6-yl)oxy)acetate TFA salt] are 9.9 min, 10 min, 29 min, 21 min and 22 min.
For `CC[C@@H](C)OC(=O)[C@@H](F)ON1C(=O)N2C[C@H]1C=C(C)[C@H]2C(N)=O` [Example 22, (2R)-(R)-sec-butyl 2-(((2S,5R)-2-carbamoyl-3-methyl-7-oxo-1,6-diazabicyclo[3.2.1]oct-3-en-6-yl)oxy)-2-fluoroacetate], the half-life at 10 μM turned out to be 4.6 min in data set [1] (setting [10]); 9.2 min in data set [2] (setting [11]); 38 min in data set [3] (buffer); 56 min in data set [4] (setting [12]); 43 min in data set [5] (setting [13]).
For `CCCCCCOC(=O)[C@@H](F)ON1C(=O)N2C[C@H]1C=C(C)[C@H]2C(N)=O` [Example 52, hexyl (2R)-2-[[(2S,5R)-2-carbamoyl-3-methyl-7-oxo-1,6-diazabicyclo[3.2.1]oct-3-en-6-yl]oxy]-2-fluoro-acetate], the half-life at 10 μM was determined as 0.84 min in data set [1] (setting [6]); 0.45 min in data set [2] (setting [7]); 76 min in data set [3] (HEPES buffer without enzyme); 39 min in data set [4] (setting [8]); 5.7 min in data set [5] (setting [9]).
In the case of `CC1=C[C@@H]2CN(C(=O)N2O[C@H](F)C(=O)OCc2ccccc2)[C@@H]1C(N)=O` [Example 54, (2R)-benzyl 2-(((2S,5R)-2-carbamoyl-3-methyl-7-oxo-1,6-diazabicyclo[3.2.1]oct-3-en-6-yl)oxy)-2-fluoroacetate], the half-life at 10 μM in data set [1] (setting [10]) was 1.9 min; in data set [2] (setting [11]), 0.9 min; in data set [3] (buffer), 22 min; in data set [4] (setting [12]), 19 min; in data set [5] (setting [13]) it was 5 min.
In the case of `CCCOC(=O)[C@@H](F)ON1C(=O)N2C[C@H]1C=C(C)[C@H]2C(N)=O` [Example 48, propyl (2R)-2-[[(2S,5R)-2-carbamoyl-3-methyl-7-oxo-1,6-diazabicyclo[3.2.1]oct-3-en-6-yl]oxy]-2-fluoro-acetate], the half-life at 10 μM in data set [1] (setting [6]) turned out to be 6.1 min; in data set [2] (setting [7]) it was 3 min; in data set [3] (HEPES buffer without enzyme) it was 62 min; in data set [4] (setting [8]) it was 50 min; in data set [5] (setting [9]), 42 min.
In the case of `CC1=C[C@@H]2CN(C(=O)N2O[C@H](F)C(=O)OC(C(C)C)C(C)C)[C@@H]1C(N)=O` [Example 15, 2,4-dimethylpentan-3-yl (2R)-{[(2S,5R)-2-carbamoyl-3-methyl-7-oxo-1,6-diazabicyclo[3.2.1]oct-3-en-6-yl]oxy}(fluoro)ethanoate], the half-life at 10 μM was 12.4 min in data set [1] (setting [6]); 1.5 min in data set [2] (setting [7]); 98 min in data set [3] (HEPES buffer without enzyme); over 100 min in data set [4] (setting [8]); over 100 min in data set [5] (setting [9]).
Regarding `CCOC(=O)[C@@H](F)ON1C(=O)N2C[C@H]1C(C)=C[C@H]2C(N)=O` [Example 31, (2R)-ethyl 2-(((2S,5R)-2-carbamoyl-4-methyl-7-oxo-1,6-diazabicyclo[3.2.1]oct-3-en-6-yl)oxy)-2-fluoroacetate], the half-life at 10 μM in data set [1] (setting [10]) came to 27 min; in data set [2] (setting [11]) it was 20 min; in data set [3] (buffer), 44 min; in data set [4] (setting [12]) it was 42 min; in data set [5] (setting [13]), 35 min.
The matching figures for `CCOC(=O)[C@H](F)ON1C(=O)N2C[C@H]1C(C)=C[C@H]2C(N)=O` [Example 32, (2S)-ethyl 2-(((2S,5R)-2-carbamoyl-4-methyl-7-oxo-1,6-diazabicyclo[3.2.1]oct-3-en-6-yl)oxy)-2-fluoroacetate]: 2.4 min, 2.4 min, 22 min, 18 min and 6.9 min.
